Test results from BindingDB's records for doi:10.7270/Q2TX3CTT (Broad Institute, 2010).
Where a name gives a salt, the structure may show the parent alone.

The compounds below were run against Glycogen synthase kinase-3 beta (Homo sapiens, UniProt P49841) (assay: GSK3beta kinase inhibitor potency, dose response, biochemical, luminescence, cell-free homogeneous, retest (AID 434954)).
Sequence of Glycogen synthase kinase-3 beta (P49841 whole entry): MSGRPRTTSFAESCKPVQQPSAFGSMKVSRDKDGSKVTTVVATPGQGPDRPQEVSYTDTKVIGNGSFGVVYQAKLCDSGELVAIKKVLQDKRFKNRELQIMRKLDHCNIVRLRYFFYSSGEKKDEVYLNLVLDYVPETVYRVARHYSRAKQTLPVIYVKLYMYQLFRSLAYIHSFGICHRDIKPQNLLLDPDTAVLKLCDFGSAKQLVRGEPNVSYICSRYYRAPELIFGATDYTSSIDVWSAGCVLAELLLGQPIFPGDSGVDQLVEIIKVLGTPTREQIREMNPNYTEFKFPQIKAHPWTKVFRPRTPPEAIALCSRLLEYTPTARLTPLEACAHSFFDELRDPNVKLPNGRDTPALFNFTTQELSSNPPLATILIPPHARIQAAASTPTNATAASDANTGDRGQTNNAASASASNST

**Q.** Which EC50 does the source give for `COc1ccc(CN(CC(=O)NCc2ccc(F)cc2)C(=O)CCC(=O)Nc2ccccn2)cc1` [N-[(4-Fluoro-benzylcarbamoyl)-methyl]-N-(4-methoxy-benzyl)-N'-pyridin-2-yl-succinamide] here?
**A.** > 300 µM

**Q.** With `COc1cccc2cc(C(=O)CS(=O)(=O)c3ccc(Cl)cc3)c(=O)oc12` [3-[2-(4-chlorophenyl)sulfonylethanoyl]-8-methoxy-chromen-2-one] as the compound, how does the EC50 read?
**A.** > 300 µM

**Q.** For `O=C(OCCCCOC(=O)c1ccccc1)c1ccccc1` [SMR000459786], which EC50 is on record?
**A.** > 300 µM

**Q.** With `COc1cc(/C=N/NC(=O)c2ccc3ccccc3c2)ccc1Oc1ccc([N+](=O)[O-])cn1` [N-[[3-methoxy-4-(5-nitropyridin-2-yl)oxy-phenyl]methylideneamino]naphthalene-2-carboxamide] as the compound, how does the EC50 read?
**A.** > 300 µM

**Q.** How did the EC50 turn out when `CN1CCN(/N=C/c2ccc(-c3ccc([N+](=O)[O-])cc3Cl)o2)CC1` [1-[5-(2-chloro-4-nitrophenyl)-2-furanyl]-N-(4-methyl-1-piperazinyl)methanimine] was run?
**A.** > 300 µM

**Q.** How did the EC50 turn out when `COc1cccc(-n2c(Cn3nc(C(F)F)cc3C(F)F)n[nH]c2=S)c1` [3-[[3,5-bis(difluoromethyl)-1-pyrazolyl]methyl]-4-(3-methoxyphenyl)-1H-1,2,4-triazole-5-thione] was run?
**A.** > 300 µM

**Q.** For `C=CCNC(=O)c1onc(CSc2cccc(OC)c2)c1C(=O)NCC=C` [3-[(3-methoxyphenyl)sulfanylmethyl]-N4,N5-bis(prop-2-enyl)-1,2-oxazole-4,5-dicarboxamide], which EC50 is on record?
**A.** > 300 µM

**Q.** With `COCCCNC(=O)c1ccc(CS(=O)(=O)c2ccc(OC)cc2)o1` [5-[(4-methoxyphenyl)sulfonylmethyl]-N-(3-methoxypropyl)furan-2-carboxamide] as the compound, how does the EC50 read?
**A.** > 300 µM

**Q.** `CCn1c(-c2nn(C)cc2Cl)n[nH]c1=S` [MLS000703969] was tested. Which EC50 did it give?
**A.** > 300 µM

**Q.** `NNc1nccc(Nc2ccccc2C(=O)O)n1` [2-[(2-hydrazinyl-4-pyrimidinyl)amino]benzoic acid] was tested. Which EC50 did it give?
**A.** 2.92 µM

**Q.** How did the EC50 turn out when `Cc1ccccc1-c1nnc(SCc2ccccc2F)o1` [2-[(2-fluorobenzyl)thio]-5-(2-methylphenyl)-1,3,4-oxadiazole] was run?
**A.** > 300 µM

**Q.** With `COc1cccc(OC)c1OCCNCC1COc2ccccc2O1` (stereo unspecified) [WB-4101 hydrochloride] as the compound, how does the EC50 read?
**A.** > 300 µM

**Q.** For `Cc1c(C(=O)NN=Cc2ccccn2)nnn1-c1nonc1N` [1-(4-amino-1,2,5-oxadiazol-3-yl)-5-methyl-N-(pyridin-2-ylmethylideneamino)triazole-4-carboxamide], which EC50 is on record?
**A.** > 300 µM

**Q.** How did the EC50 turn out when `N#Cc1ccccc1CSc1nnc(Cc2ccccc2)o1` [SMR000297282] was run?
**A.** > 300 µM

**Q.** Which EC50 does the source give for `CCOC(=O)c1cnc2ccc(OC)cc2c1Nc1ccc2c(c1)OCCO2` [SMR000196288] here?
**A.** 16.7 µM

**Q.** `O=C(Nc1ccncc1)Nc1ccncc1` [1,3-bis(4-pyridyl)urea] was tested. Which EC50 did it give?
**A.** > 300 µM

**Q.** For `N#Cc1c(O)nc(SCC(=O)c2cccs2)nc1-c1cccs1` [6-oxo-2-{[2-oxo-2-(2-thienyl)ethyl]sulfanyl}-4-(2-thienyl)-1,6-dihydro-5-pyrimidinecarbonitrile], which EC50 is on record?
**A.** > 300 µM

**Q.** Which EC50 does the source give for `COc1ccc2cc(C(N)=O)c(=NNC(=O)c3ccco3)oc2c1` [SMR000236446] here?
**A.** > 300 µM

**Q.** `CS(=O)(=O)N1CCN(c2cccc(Cl)n2)CC1` [MLS000594331] was tested. Which EC50 did it give?
**A.** > 300 µM

**Q.** Which EC50 does the source give for `CNC(=O)NC(=O)CSc1nc(-c2cccs2)c(C#N)c(=O)[nH]1` [2-[(5-cyano-4-oxo-6-thiophen-2-yl-1H-pyrimidin-2-yl)thio]-N-(methylcarbamoyl)acetamide] here?
**A.** 2.05 µM

**Q.** For `Nc1nc(NCC2CCCO2)nc(Nc2ccccc2)c1[N+](=O)[O-]` (stereo unspecified) [5-nitro-2-N-(oxolan-2-ylmethyl)-4-N-phenylpyrimidine-2,4,6-triamine], which EC50 is on record?
**A.** 2.17 µM

**Q.** `O=C(NN=Cc1ccc(Br)s1)c1cccnc1` was tested. Which EC50 did it give?
**A.** > 300 µM

**Q.** Which EC50 does the source give for `O=C(O)c1ccccc1Nc1ccccc1C(=O)O` [2-[(2-carboxyphenyl)amino]benzoic acid] here?
**A.** > 300 µM

**Q.** Which EC50 does the source give for `COc1ccc(CNCCC(c2ccc(F)cc2)c2ccc(OC)cc2)cc1` (stereo unspecified) [3-(4-fluorophenyl)-3-(4-methoxyphenyl)-N-[(4-methoxyphenyl)methyl]propan-1-amine] here?
**A.** > 300 µM

**Q.** `CCOC(=O)CCNCC1COc2ccccc2O1` (stereo unspecified) [ethyl 3-(2,3-dihydro-1,4-benzodioxin-3-ylmethylamino)propanoate;hydrochloride] was tested. Which EC50 did it give?
**A.** > 300 µM

**Q.** `CCN(CC)C(=O)CSc1nc(N)c(C#N)c(-c2cccs2)c1C#N` [SMR000115110] was tested. Which EC50 did it give?
**A.** > 300 µM

**Q.** With `NNC(=O)CNC(=O)c1ccc(F)cc1` as the compound, how does the EC50 read?
**A.** > 300 µM

**Q.** For `COc1ccc(Cl)cc1NC(=O)CS(=O)(=O)c1cccc2nsnc12` [2-(2,1,3-benzothiadiazol-4-ylsulfonyl)-N-(5-chloranyl-2-methoxy-phenyl)ethanamide], which EC50 is on record?
**A.** > 300 µM

**Q.** How did the EC50 turn out when `Cc1ccc(NC(=O)Nc2cc(-c3ccccc3)nn2C)cc1Cl` [N-(3-chloro-4-methylphenyl)-N'-(1-methyl-3-phenyl-1H-pyrazol-5-yl)urea] was run?
**A.** > 300 µM

**Q.** How did the EC50 turn out when `CC(C)[C@H](CO)Nc1nc(NCc2ccc(S(N)(=O)=O)cc2)c2ncn(C(C)C)c2n1` [4-[[[2-[[(2R)-1-hydroxy-3-methylbutan-2-yl]amino]-9-propan-2-yl-6-purinyl]amino]methyl]benzenesulfonamide] was run?
**A.** 39.6 µM

**Q.** How did the EC50 turn out when `COC(=O)[C@@H]1Cc2c([nH]c3ccccc23)C2CCC(=O)N21` (stereo partly drawn) [methyl (5S)-3-oxidanylidene-1,2,5,6,11,11b-hexahydroindolizino[8,7-b]indole-5-carboxylate] was run?
**A.** > 300 µM

**Q.** Which EC50 does the source give for `COc1ccc(-c2c(N)nnc3c2[nH]c2ccccc23)cc1OC` here?
**A.** > 300 µM

**Q.** `O=C(O)CSCC(=O)NCc1c(Cl)cccc1Oc1ccccc1` was tested. Which EC50 did it give?
**A.** > 300 µM

**Q.** `CCCCc1cc(=O)oc2c(CN(C)C)c(O)ccc12` [4-butyl-8-[(dimethylamino)methyl]-7-hydroxy-1-benzopyran-2-one] was tested. Which EC50 did it give?
**A.** > 300 µM

**Q.** How did the EC50 turn out when `Cc1ccnc(NC(=O)C(C)n2cc([N+](=O)[O-])cn2)c1` (stereo unspecified) was run?
**A.** 7.19 µM

**Q.** `COc1ccccc1N1CCN(CCCNC(=O)C2CCCN(c3ncnc4c3nc3n4CCCCC3)C2)CC1` (stereo unspecified) [N-[3-[4-(2-methoxyphenyl)piperazin-1-yl]propyl]-1-(7,8,9,10-tetrahydro-6H-purino[9,8-a]azepin-4-yl)piperidine-3-carboxamide] was tested. Which EC50 did it give?
**A.** 156 µM

**Q.** With `COc1ccc(-c2nc(-c3ccccc3)nc(Cl)c2C#N)cc1` [4-chloranyl-6-(4-methoxyphenyl)-2-phenyl-pyrimidine-5-carbonitrile] as the compound, how does the EC50 read?
**A.** > 300 µM

**Q.** How did the EC50 turn out when `C=C1C(c2ccc(OC)cc2)=[N+](O)C(C)=C(C)N1[O-]` was run?
**A.** > 300 µM

**Q.** Which EC50 does the source give for `Cc1cc(NC(=O)CSc2nnc(C3CC3)n2Cc2ccccc2)no1` [MLS000566701] here?
**A.** > 300 µM

**Q.** With `CCCNC(=O)c1ccc(Cl)cc1Cl` [SMR000528064] as the compound, how does the EC50 read?
**A.** > 300 µM

**Q.** For `Cc1ccccc1C1=NC(C(F)(F)F)(C(F)(F)F)c2c(n(C)c(=O)n(C)c2=O)N1` [1,3-dimethyl-7-(2-methylphenyl)-5,5-bis(trifluoromethyl)-8H-pyrimido[4,5-d]pyrimidine-2,4-dione], which EC50 is on record?
**A.** > 300 µM

**Q.** With `O=c1cc(-c2ccccc2Cl)oc2ccc([N+](=O)[O-])c(O)c12` [2-(2-chlorophenyl)-5-hydroxy-6-nitrochromen-4-one] as the compound, how does the EC50 read?
**A.** > 300 µM

**Q.** For `O=C(C[n+]1ccc(C=Cc2ccccc2)cc1)c1ccc2c(c1)OCCO2`, which EC50 is on record?
**A.** 125 µM

**Q.** For `CC(C)N1CCc2c(sc(NC(=O)CCS(=O)(=O)c3ccccc3)c2C(N)=O)C1` [2-[[3-(benzenesulfonyl)-1-oxopropyl]amino]-6-propan-2-yl-5,7-dihydro-4H-thieno[2,3-c]pyridine-3-carboxamide;hydrochloride], which EC50 is on record?
**A.** > 300 µM

**Q.** For `Nc1nonc1-n1nnc(C(=O)N/N=C/c2ccncc2)c1CN1CCCCC1`, which EC50 is on record?
**A.** 0.181 µM

**Q.** With `COc1cc(/C=N/NC(=O)c2ccc(Cl)cc2)ccc1Oc1ccc([N+](=O)[O-])cn1` as the compound, how does the EC50 read?
**A.** > 300 µM

**Q.** `COc1ccc(C2c3c(n[nH]c3C)N=C3CC(C)(C)CC(=O)C32)cc1` (stereo unspecified) was tested. Which EC50 did it give?
**A.** 28.3 µM

**Q.** For `CC(=O)N1CCc2c(sc(NC(=O)CCS(=O)(=O)c3ccccc3)c2C(N)=O)C1`, which EC50 is on record?
**A.** 122 µM

**Q.** For `O=C(Nc1ccc(O)c2c(=O)cc(-c3ccccc3Cl)oc12)c1ccccc1Cl`, which EC50 is on record?
**A.** > 300 µM

**Q.** How did the EC50 turn out when `COC(=O)c1nnn(-c2nonc2N)c1CN1CCc2ccccc21` [1-(4-amino-1,2,5-oxadiazol-3-yl)-5-(2,3-dihydroindol-1-ylmethyl)-4-triazolecarboxylic acid methyl ester] was run?
**A.** 6.97 µM

**Q.** Which EC50 does the source give for `O=C(C1CCCN(S(=O)(=O)c2ccccc2)C1)N1CCN(c2ncccn2)CC1` (stereo unspecified) [[1-(phenylsulfonyl)piperidin-3-yl]-(4-pyrimidin-2-ylpiperazin-1-yl)methanone] here?
**A.** > 300 µM

**Q.** `Nc1ncc(-c2ccccc2)c(-c2ccc(O)cc2O)n1` was tested. Which EC50 did it give?
**A.** 7.69 µM

**Q.** Which EC50 does the source give for `Cc1ccnc(NC(=O)c2cccc([N+](=O)[O-])c2C)c1` [2-methyl-N-(4-methylpyridin-2-yl)-3-nitro-benzamide] here?
**A.** > 300 µM

**Q.** For `Cc1ccnc(NC(=O)CCC(=O)N(CC(=O)NCc2ccccc2)Cc2cccs2)c1`, which EC50 is on record?
**A.** 16.9 µM

**Q.** `COc1ccc(Nc2nc(N)nc(CSc3nnc(C)s3)n2)cc1` [MLS000527270] was tested. Which EC50 did it give?
**A.** 82 µM

**Q.** For `CC(C)c1ccc(C(=O)NCCCN2CCN(CCCNC(=O)c3ccc(C(C)C)cc3)CC2)cc1` [SMR000272164], which EC50 is on record?
**A.** > 300 µM

**Q.** For `Cc1ccc(Nc2nc(-c3ccncc3)nc3ccccc23)cc1` [MLS000769531], which EC50 is on record?
**A.** > 300 µM

**Q.** Which EC50 does the source give for `O=C1c2ccccc2NC(c2c[nH]nc2-c2ccccc2)N1O` (stereo unspecified) here?
**A.** > 300 µM

**Q.** Which EC50 does the source give for `O=c1oc(-c2cccs2)nc2sc3c(c12)CCCC3` [SMR000116853] here?
**A.** > 300 µM

**Q.** With `CC(C)Nc1nc(-c2ccncc2)nc(-c2ccc(Cl)cc2)c1C#N` [SMR000333194] as the compound, how does the EC50 read?
**A.** > 300 µM

**Q.** `O=C1CCCC2=Nc3ccccc3NC(c3cccs3)C12` (stereo unspecified) [6-thiophen-2-yl-5,6,8,9,10,11-hexahydrobenzo[b][1,4]benzodiazepin-7-one] was tested. Which EC50 did it give?
**A.** > 300 µM

**Q.** Which EC50 does the source give for `CC(C)=CCc1c(O)c(CC=C(C)C)c2c(c1O)C(=O)CC(c1ccc(O)cc1)O2` (stereo unspecified) [2-(4-hydroxyphenyl)-6,8-bis(3-methylbut-2-enyl)-5,7-bis(oxidanyl)-2,3-dihydrochromen-4-one] here?
**A.** > 300 µM

**Q.** Which EC50 does the source give for `CC(=O)N1CCc2c(sc(NC(=O)CN3C(=O)CCC3=O)c2C(N)=O)C1` [6-acetyl-2-[[2-(2,5-dioxopyrrolidin-1-yl)acetyl]amino]-5,7-dihydro-4H-thieno[2,3-c]pyridine-3-carboxamide] here?
**A.** 2.29 µM

**Q.** Which EC50 does the source give for `Cc1cc(CNC(=O)C(C)n2cc([N+](=O)[O-])cn2)c2ccccc2n1` (stereo unspecified) [SMR000307388] here?
**A.** > 300 µM

**Q.** With `CCCSCCCNC(=O)Cn1nc(CC)n2c(cc3c(OC)cccc32)c1=O` as the compound, how does the EC50 read?
**A.** > 300 µM

**Q.** With `CCN1CCN(Cc2ccc(NC(=O)c3ccc(C)c(/C=C/c4cnc(Nc5cc(N6CCNCC6)nc(C)n5)cn4)c3)cc2C(F)(F)F)CC1` [SMR000718284] as the compound, how does the EC50 read?
**A.** > 300 µM
